“And” between values parts separate entries of the source, which are not always exact repeats. Equal entries are not always repeated.
Key:
EphB4 [1] = target: T1, EphB4 (Homo sapiens, UniProt P54760); experiment: Cerep FRET-based enzymatic assay; type: biochemical; conditions: ATP 0.75 μM, read-out: Enzymatic assays IC50 Cerep
T1 sequence (P54760 16-987): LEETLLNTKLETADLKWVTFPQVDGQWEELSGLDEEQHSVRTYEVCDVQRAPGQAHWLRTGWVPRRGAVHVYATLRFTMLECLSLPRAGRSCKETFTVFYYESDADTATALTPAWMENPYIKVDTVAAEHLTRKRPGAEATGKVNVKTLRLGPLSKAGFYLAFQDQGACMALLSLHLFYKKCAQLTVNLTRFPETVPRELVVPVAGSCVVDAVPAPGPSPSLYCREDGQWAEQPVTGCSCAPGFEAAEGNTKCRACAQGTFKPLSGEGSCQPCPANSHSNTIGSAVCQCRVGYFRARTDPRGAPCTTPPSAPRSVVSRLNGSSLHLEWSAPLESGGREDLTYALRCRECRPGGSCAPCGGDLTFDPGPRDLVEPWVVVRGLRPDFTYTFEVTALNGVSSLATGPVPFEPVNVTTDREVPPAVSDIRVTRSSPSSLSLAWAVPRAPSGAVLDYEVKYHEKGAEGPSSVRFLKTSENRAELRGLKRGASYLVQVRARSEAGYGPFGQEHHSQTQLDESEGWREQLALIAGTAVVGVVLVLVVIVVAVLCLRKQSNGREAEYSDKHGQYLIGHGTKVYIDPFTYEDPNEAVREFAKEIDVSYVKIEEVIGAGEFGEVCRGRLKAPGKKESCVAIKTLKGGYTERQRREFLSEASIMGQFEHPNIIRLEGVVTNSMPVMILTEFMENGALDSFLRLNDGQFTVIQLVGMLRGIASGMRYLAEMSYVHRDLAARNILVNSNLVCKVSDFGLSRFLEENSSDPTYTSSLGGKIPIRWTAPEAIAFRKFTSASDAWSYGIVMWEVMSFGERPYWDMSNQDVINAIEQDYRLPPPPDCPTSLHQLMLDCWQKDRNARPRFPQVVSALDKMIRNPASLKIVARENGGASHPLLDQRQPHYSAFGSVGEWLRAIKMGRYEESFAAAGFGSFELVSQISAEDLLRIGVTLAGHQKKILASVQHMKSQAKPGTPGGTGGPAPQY
From the text: Similar values of IC50 compared to the original FRET-based enzymatic assay (Z'Lyte) are obtained (Table 2).

[2] = target: T2, myc-tagged full-length human EphB4 (Homo sapiens, UniProt P54760); experiment: Phospho-EphB4 ELISA of CHO cells (EphB4 autophosphorylation); type: cell-based
T2 construct: stably transfected with myc-tagged full-length human EphB4; expressed in transfected cells; host or cells: CHO-FRT cells (Flip-In System, Invitrogen)
T2 sequence (P54760 16-987): T1 sequence (P54760 16-987)
Method: Phospho-EphB4 ELISA of CHO cells. The ELISA assay was performed as follows: Chinese hamster ovary (CHO)-FRT cells are stably transfected with myc-tagged full-length human EphB4 according to the Flip-In System protocol (Invitrogen, USA). […] Cells of this clone are preincubated with EphB4 inhibitors for 15 minutes and then stimulated with preclustered ephrinB2-Fc for 45 minutes at 37° C. Cells are lysed, transferred to a 96-well plate coated with anti-myc antibody and incubated overnight at 4° C. After incubation with anti-phosphotyrosine antibody, reactions are developed with BM Blue peroxydase substrate, and autophosphorylation of EphB4 is quantified by measuring absorption at 450 nm.

EphB4 [3] = target: T1, EphB4; experiment: IC50 and % inhibition (Table 3); type: biochemical; conditions: for IC50: repeated determinations
EphB4 [4] = target: T1, EphB4; experiment: Omnia kinetic assay (Omnia Tyr Recombinant Kit KNZ4051); type: biochemical; design: purchased Proqinase, Germany
Method: The data obtained in these experiments are shown in a specific velocity plot (FIG. 2), where the ratio of the initial velocities for the non-inhibited and inhibited reactions at a given ATP concentration (v0/vi in FIG. 2) is plotted versus σ/(1+σ), with σ=[ATP]/Km. […] Kinetic assay. […] Fluorescence progress curves are measured upon excitation at 360 nm and emission at 485 nm. […] Biosource Omnia. […] The assay is run at 30° C. for 1 hour.

EphB4 [5] = target: T1, EphB4; experiment: Panvera Z'Lyte FRET-based enzymatic assay
Method: In vitro kinase activity was measured using the Panvera Z'Lyte Tyr2 kinase assay PV3191 (Invitrogen, USA), according to the manufacturer's instructions. […] The reaction is performed at room temperature for 1 hour.

Question: `Cn1c(=O)[nH]c(=O)c2c1nc1n(CCCCO)c(-c3ccccc3)cn21` [Compound 2] was tested. Which IC50 (EphB4 [1]) did it give?
Answer: The IC50 was 6.8 µM.

Question: And the “Inhibitory effects on EphB4 autophosphorylation in CHO cells (in words)” value ([2]; 20 μM)?
Answer: Its value is “only mild inhibitory effects”.

Question: And the “Cell-based assay percent inhibition” value ([2]; in CHO cells, at 20 μM)?
Answer: The value was “neg”.

Question: And the “% inhibition at indicated concentration C” value (EphB4 [3]; C = 10 μM, 10 µM)?
Answer: The value was 67% and 68% and 59% and 64%.

Question: What about the inhibition at 10 µM (EphB4 [3]; C = 10 μM, read-out: % inhibition at indicated concentration C) of the same molecule?
Answer: Its inhibition at 10 µM is 72%.

Question: What about the IC50 (EphB4 [3]; IC50, Table 3) of the same molecule?
Answer: The IC50 was 6.7 µM.

Question: And the IC50 (EphB4 [3]; Table 3, read-out: IC50)?
Answer: The IC50 was 8 µM and 7 µM.

Question: And the “Sensitivity of inhibition to detergent (in words)” value (EphB4 [4]; 0.01% Triton X-100)?
Answer: Its value is “detergent-insensitive inhibition”.

Question: What about the “Mode of inhibition versus ATP (specific velocity plot)” value (EphB4 [4]; ATP 31.25 to 500 μM, Km 158 μM) of the same molecule?
Answer: Its value is “ATP competitive”.

Question: What about the Ki (EphB4 [4]; two experiments, with and without 0.01% Triton X-100, read-out: Ki corresponding to Omnia IC50) of the same molecule?
Answer: Its Ki is 2.7 µM and 2.9 µM.

Question: And the IC50 (EphB4 [4]; two experiments, without and with 0.01% Triton X-100, ATP 125 μM, 30° C. 1 hour, read-out: Enzymatic assays IC50 Omnia)?
Answer: The IC50 was 5.6 µM and 7.9 µM.

Question: And the IC50 (EphB4 [5])?
Answer: Its IC50 is about 1.6 µM.

Question: And the IC50 (EphB4 [5]; Enzymatic assays IC50 Z′Lyte, FRET-based, 10 μM ATP, 1% DMSO, room temperature 1 hour)?
Answer: Its IC50 is 1.4 µM and 1.8 µM.
